Data as given in patent US12590093B2, “Indolo[2′,3′:3,4]pyrido[2,1-b]quinazoline compound and use thereof” (INSTITUTE OF MEDICINAL BIOTECHNOLOGY CHINESE ACADEMY OF …, priority 2019, dated 2026).
Entries after “also recorded” stand apart in the source; their conditions may differ.

How the values were obtained:
ApoE^−/− mice [1] = assay: Serum lipid levels in ApoE−/− mice; type: in vivo; settings: 5 mg/kg intragastrically, 12 weeks, HFD, versus model group
Method: (§1) 6-week-old male C57/BL6 ApoE^−/− mice were fed on normal chaw diet for one week. The mice were randomly divided into three groups (control group, high-fat diet model group, and treatment group, 12 mice per group) according to the body weight. From 7-week-old, the high-fat diet model group and the treatment group were fed on a high fat diet (HFD) (0.15% cholesterol and 20% fat), and the control group was fed on normal chow diet. The treatment group (R3) mice were administered intragastrically with TR3 (5 mg/kg). The control group and the high-fat diet model group mice were intragastrically administered with sodium carboxymethylcellulose (CMC-Na) solution. After 12 weeks of administration, all mice were fasted overnight. The blood sample was taken from the retro-orbital plexus, collected in a EP tube, and then centrifuged for 15 min (2500 rpm). The centrifuged serum (upper layer) was transferred to new EP tubes (divided into two aliquots) and stored at −20° C. for further use. The mice were fixed, and the skin was cut open along the midline of the abdomen to the neck. The abdominal cavity was cut open to collect the fresh liver tissue. The Liver tissue was put into 3 freezing tubes, and then immediately put into liquid nitrogen for subsequent detection of liver lipid detection and extraction of RNA and protein. The thorax was cut open to expose the heart. The heart was perfused with 10 ml PBS, and then fixed by perfusion with 4% paraformaldehyde solution until the liver turned white. The fixed liver was taken out and placed in a six-well plate containing 4% paraformaldehyde solution for further fixation. The full-length aorta (from the ascending aorta to the common iliac arteries) was isolated and placed in a six-well plate containing 4% paraformaldehyde solution. The aorta was fixed in 4% paraformaldehyde solution overnight and then stored in 20% sucrose solution at 4° C.
The plasma biochemical indices were measured by using commercially available kits (Biosino Bio-technology and Science Inc., China) and the automatic biochemical analyzer.

LXRβ = molecular target: T1, LXRβ (Homo sapiens, UniProt P55055); assay: Nuclear receptor reporter gene transient transfection (pBIND-hLXRs-LBD) in HepG2 cells, LXRβ; type: cell-based
T1 construct: expressed in transfected cells; host or cells: HepG2
T1 sequence (P55055 222-460 limits assumed): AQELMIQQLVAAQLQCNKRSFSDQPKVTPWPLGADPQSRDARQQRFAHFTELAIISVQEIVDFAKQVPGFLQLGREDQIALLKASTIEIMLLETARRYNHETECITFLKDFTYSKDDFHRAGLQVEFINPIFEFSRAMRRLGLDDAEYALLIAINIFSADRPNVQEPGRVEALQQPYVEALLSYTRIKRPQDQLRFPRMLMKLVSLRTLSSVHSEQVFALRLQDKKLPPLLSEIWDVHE
Method: (§2) HepG2 cells in logarithmic growth phase were digested, seeded into the white/clear 96-well plate at a density of 5×10^4 cells/well/100 μL until the cells grew to about 90% confluence and in good condition. 0.5 μL liposome (Lipofectamine® 2000) diluted with blank medium to 25 μL per well and incubated at room temperature for 5 min. The corresponding plasmids DNA (nuclear receptor plasmid:Gal4=1:10) were diluted in blank DMEM medium to 25 μL/well (mixing of two plasmids), then mixed evenly with the diluted liposome, and incubated for 20 min at 37° C. The DNA-liposome complex (50 μL per well) was added with the DMEM complete medium (100 μL per well) and mixed thoroughly to obtain a DNA-liposome complex cell culture. The cell medium was discarded, and replaced with the DNA-liposome complex cell culture (150 μL/well) (37° C., 5% CO2). After 6 h, the DNA-liposome complex cell culture medium was discarded, and 200 μL serum-free DMEM medium containing the compound at an appropriate concentration was added to each test well, and cultured for 18-24 h. The cell Luciferase activity was measured by the method as described in the Luciferase Assay System.

ABCA1 [2] = assay: ABCA1 protein expression in liver of ApoE−/− mice; type: in vivo; settings: FIG. 10
Method: 6-week-old male C57/BL6 ApoE^−/− mice were fed on normal chaw diet for one week. The mice were randomly divided into three groups (control group, high-fat diet model group, and treatment group, 12 mice per group) according to the body weight. From 7-week-old, the high-fat diet model group and the treatment group were fed on a high fat diet (HFD) (0.15% cholesterol and 20% fat), and the control group was fed on normal chow diet. The treatment group (R3) mice were administered intragastrically with TR3 (5 mg/kg). The control group and the high-fat diet model group mice were intragastrically administered with sodium carboxymethylcellulose (CMC-Na) solution. After 12 weeks of administration, all mice were fasted overnight. The blood sample was taken from the retro-orbital plexus, collected in a EP tube, and then centrifuged for 15 min (2500 rpm). The centrifuged serum (upper layer) was transferred to new EP tubes (divided into two aliquots) and stored at −20° C. for further use. […]
(§3) When animal tissues were used to prepare protein samples, the tissues were firstly homogenized and lysed in the RIPA lysis buffer. […] When cell supernatants were used to prepare protein samples, the supernatants were freeze-dried, needed to be extracted using a protein recovery kit (Applygen, Beijing, China), and then analyzed by western-blot.

PPARα = molecular target: T2, PPARα (Homo sapiens, UniProt Q07869); assay: Nuclear receptor reporter gene transient transfection (pBIND-hPPARs-LBD) in HepG2 cells, PPARα; type: cell-based; settings: FIG. 2, result in words
T2 construct: expressed in transfected cells; host or cells: HepG2
T2 sequence (Q07869 239-466 limits assumed): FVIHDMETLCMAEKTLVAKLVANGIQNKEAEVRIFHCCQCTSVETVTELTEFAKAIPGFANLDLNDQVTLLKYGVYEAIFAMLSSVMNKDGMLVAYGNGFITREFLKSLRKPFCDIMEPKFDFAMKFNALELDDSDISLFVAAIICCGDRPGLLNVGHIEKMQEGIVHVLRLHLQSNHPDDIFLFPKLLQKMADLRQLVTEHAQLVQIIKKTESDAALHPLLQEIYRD
Method: as §2

ABCA1 [3] = assay: ABCA1 up-regulation, luciferase reporter in ABCA1P-LUC HepG2 cells; type: cell-based; settings: co-incubated with MK886, GW9662, GSK3787 or GGPP
AMPK = AMPK level in RAW 264.7 cells by western-blot; type: cell-based, Murine; settings: 1 μM, 18-24 h treatment, FIG. 11
Method: Murine macrophages RAW 264.7 cells were subcultured about every 48 h. When the cells were approximately 100% confluent, the old culture medium was removed, and the cells were washed with PBS and digested with trypsin at an appropriate amount for about 2 min at RT. After the digestion solution was removed, the RPMI-1640 complete medium containing 10% FBS was added immediately to inhibit the activity of trypsin. The cells in the culture flask were repeatedly and gently blown with a curved straw, so that they were completely detached from the bottom of the flask and dispersed into the single-cell suspension. The cells were seeded into a new cell flask at a density of 1:4-1:6, and added with an appropriate amount of the complete medium. The flask was placed in an incubator and cultured at 37° C., 5% CO2. RAW264.7 cells were pretreated with si-AMPK (AMPK siRNA) for 24 h, and then treated with compound TR3 (1 μM) for 24 h. The expression of ABCA1 and AMPK was detected by western-blot.
The effect of TR3 on AMPK was detected by western-blot.

MAPK signaling pathway = assay: Western-blot of MAPK signaling pathway in ApoE−/− mice; type: in vivo; settings: FIG. 8
Method: as §1, with “The full-length aorta (from the ascending aorta to the common iliac arteries) was isolated and placed in a six-well plate containing 4% paraformaldehyde solution. The aorta was fixed in 4% paraformaldehyde solution overnight and then stored in 20% sucrose solution at 4° C.” left out
as §3, with “western-blot. […]” for “western-blot.”

ApoE^−/− mice [4] = assay: Atherosclerosis model in ApoE−/− mice on high-fat diet, Oil Red O staining of aorta; type: in vivo; settings: 5 mg/kg intragastrically, 12 weeks, HFD, versus model group
Method: as §1, with “The heart was perfused with 10 ml PBS, and then fixed by perfusion with 4% paraformaldehyde solution until the liver turned white. The fixed liver was taken out and placed in a six-well plate containing 4% paraformaldehyde solution for further fixation. The full-length aorta (from the ascending aorta to the common iliac arteries) was isolated and placed in a six-well plate containing 4% paraformaldehyde solution. The aorta was fixed in 4% paraformaldehyde solution overnight and then stored in 20% sucrose solution at 4° C.” left out

c1ccc2c(c1)CN1CCc3c([nH]c4ccccc34)C1=N2 [TR3, 5,7,8,13-tetrahydroindolo[2′,3′:3,4]pyrido[2,1-b]quinazoline]
level of LDL-C in serum (ApoE^−/− mice [1]): greatly decreased | level of TC in serum (ApoE^−/− mice [1]): greatly decreased | level of TG in serum (ApoE^−/− mice [1]): greatly decreased | LXRβ max (LXRβ; HepG2 cells, reporter gene, 18-24 h): 1.42 | LXRβ agonist activity (LXRβ; result in words): showed agonist activity; also recorded: simultaneously activated PPARα/γ/δ and LXRα/β to a certain extent | expression of ABCA1 in the liver (ABCA1 [2]): increased | activation of PPARα (PPARα): simultaneously activated PPARα/γ/δ and LXRα/β to a certain extent | up-regulating transcription activity of ABCA1 when co-incubated with nuclear receptor inhibitor (ABCA1 [3]): significantly inhibited | AMPK level (AMPK): significantly up-regulated | expression of p-ERK (MAPK signaling pathway): also inhibited | expression of p-JNK (MAPK signaling pathway): also inhibited | expression of p-P38 (MAPK signaling pathway): also inhibited | atherosclerotic plaque area in the aorta (ApoE^−/− mice [4]): significantly reduced
